# Assay results: patent US11702416B2, “1H-pyrrolo[2,3-c]pyridin-7(6H)-ones and pyrazolo[3,4-c]pyridin-7(6H)-ones as inhibitors of BET proteins” (Incyte Corporation, priority 2014, dated 2023)
# System: KMS.12.BM cell line (human myeloma)
# Test: KMS.12.BM cell viability assay
# Type: cell-based
# Conditions: 3 days, Cell Titer-GLO ATP quantitation; concentration required for 50% cell death
# Description: KMS.12.BM cell line (human myeloma) was purchased from JCRB (Osaka, Japan) and maintained in RPMI with 10% FBS culture medium. To measure the cytotoxic activity of the compounds through ATP quantitation, the KMS.12.BM cells are plated in the RPMI culture medium at 5000 cells/well/per 100 μL into a 96-well polystyrene clear black tissue culture plate (Greiner-bio-one through VWR, NJ), in the presence or absence of a concentration range of test compounds. After 3 days, […] Cell Titer-GLO Luminescent (Promega, Madison, Wis.) cell culture agent is added to each well for 10 minutes at room temperature to stabilize the luminescent signal. This determines the number of viable cells in culture based on quantitation of the ATP present, which signals the presence of metabolically active cells. Luminescence is measured with the Top Count 384 (Packard Bioscience through Perkin Elmer, Boston, Mass.). Compound inhibition is determined relative to cells cultured with no drug and the IC50 is reported as the compound concentration required for 50% cell death.
compound,measurement,value
"Cn1cc(-c2cc(S(C)(=O)=O)cc3c2NC2(CCC2)C(=O)N3)c2cc[nH]c2c1=O [Example 62, 8′-(6-methyl-7-oxo-6,7-dihydro-1H-pyrrolo[2,3-c]pyridin-4-yl)-6′-(methylsulfonyl)-1,4′-dihydro-3H-spiro[cyclobutane-1,2′-quinoxalin]-3′-one]",IC50,≤ 1 µM
